Measurements from patent US20100190794A1, “Herbicidally Active Composition” (BASF SE, priority 2007, published 2010).

How the values were obtained:
[1] = tested on: BRAPL; assay: greenhouse test, pre-emergence treatment; format: in vivo, Brachiaria plantaginea; details: 250 g/ha a.s.
Description: (§1) The culture containers used were plastic pots containing loamy sand with approximately 3.0% of humus as substrate. The seeds of the test plants were sown separately for each species.
(§2) For the pre-emergence treatment, the active compounds, suspended or emulsified in water, were applied directly after sowing by means of finely distributing nozzles. The containers were irrigated gently to promote germination and growth and subsequently covered with transparent plastic hoods until the plants had rooted. This cover caused uniform germination of the test plants unless this was adversely affected by the active compounds.
(§3) Depending on the species, the plants were kept at 10-25° C. and 20-35° C., respectively. The test period extended over 2 to 4 weeks. During this time, the plants were tended and their response to the individual treatments was evaluated.
(§4) Evaluation was carried out using a scale from 0 to 100. 100 means no emergence of the plants, or complete destruction of at least the above-ground parts, and 0 means no damage or normal course of growth. Good herbicidal activity is given at values of at least 70, and very good herbicidal activity is given at values of at least 85.
(§5) The respective stated components A and B, and if appropriate, C were formulated as a 5% by weight or 10% by weight strength emulsion concentrate or a commercially available formulation of component B was used and, with addition of the amount of solvent system, introduced into the spray liquor used for applying the active compound. In the examples, the solvent used was water.
(§6) The test period extended over 20 or 21 days. During this time, the plants were tended, and their reactions to the treatment with active compound was monitored.
(§7) What was evaluated was the damage by the chemical compositions using a scale of from 0 to 100%, in comparison to the untreated control plants. 0 means no damage, and 100 means complete destruction of the plants.
(§8) In the examples below, using the method of S. R. Colby (1967) “Calculating synergistic and antagonistic responses of herbicide combinations”, Weeds 15, p. 22 ff., the value E, which is expected if the activity of the individual active compounds is only additive, was calculated.
(§9) where X=percent activity using active compound A at an application rate a; Y=percent activity using active compound B at an application rate b; E=expected activity (in %) by A+B at application rates a+b.
(§10) If the value found in experiments is higher than the value E calculated according to Colby, a synergistic effect is present.

[2] = tested on: DIGSA; assay: greenhouse test, pre-emergence treatment; format: in vivo, Digitaria sanguinalis; details: for Herbicidal action in % after 21 days against DIGSA: Use Example 9
Description: as §1, §2, §3, §4, §5, §6, §7, §8, §9, §10

[3] = tested on: AVEFA; assay: greenhouse test, pre-emergence treatment; format: in vivo, Avena fatua; details: Use Example 6
Description: as §1, §2, §3
as §4, with “85. […]” for “85.”
as §6
(§11) What was evaluated was the damage by the chemical compositions using a scale of from 0 to 100%, in comparison to the untreated control plants. […]
(§12) In the examples below, using the method of S. R. Colby (1967) “Calculating synergistic and antagonistic responses of herbicide combinations”, Weeds 15, p. 22 ff., the value E, which is expected if the activity of the individual active compounds is only additive, was calculated. […]
as §10

[4] = tested on: POAAN; assay: greenhouse test, pre-emergence treatment; format: in vivo, Poa annua
Description: as §1, §2, §3, §4, §5, §6, §7, §8, §9, §10

[5] = tested on: SETLU; assay: greenhouse test, pre-emergence treatment; format: in vivo, Setaria glauca; details: for Herbicidal action in % after 21 days against SETLU: Use Example 9
Description: as §1, §2, §3, §4, §5, §6, §7, §8, §9, §10

[6] = tested on: SETVI; assay: greenhouse test, pre-emergence treatment; format: in vivo, Setaria viridis; details: 125 g/ha a.s., Use Example 11
Description: as §1, §2
Depending on the species, the plants were kept at 10-25° C. and 20-35° C., respectively. […] During this time, the plants were tended and their response to the individual treatments was evaluated. […]
as §6, §11, §12

[7] = tested on: LAMPU; assay: greenhouse test, pre-emergence treatment; format: in vivo, Lamium purpureum; details: 125 g/ha a.s., Use Example 11
Description: as §1, §2, §3, §4, §5, §6, §7, §8, §9, §10

[8] = tested on: SETFA; assay: greenhouse test, pre-emergence treatment; format: in vivo, Setaria faberi
Description: as §1, §2, §3, §4, §5, §6, §7, §8, §9, §10

[9] = tested on: ALOMY; assay: greenhouse test, post-emergence treatment; format: in vivo, Alopecurus myosuroides; details: Use Example 17
Procedure: as §1
(§13) For the post-emergence treatment, the test plants were grown to a plant height of from 3 to 15 cm, depending on the plant habit, and only then treated with the active compounds which had been suspended or emulsified in water. To this end, the test plants were either sown directly and grown in the same containers, or they were first grown separately as seedlings and transplanted into the test containers a few days prior to treatment.
as §3, §4, §5, §6, §7, §8, §9, §10

[10] = tested on: LOLMU; assay: greenhouse test, post-emergence treatment; format: in vivo, Lolium multiflorum; details: Use Example 17
Procedure: as §1, §13, §3, §4, §5, §6, §7, §8, §9, §10

[11] = tested on: SETVI; assay: greenhouse test, post-emergence treatment; format: in vivo, Setaria viridis
Procedure: as §1, §13, §3, §4, §5, §6, §7, §8, §9, §10

[12] = tested on: DIGSA; assay: greenhouse test, post-emergence treatment; format: in vivo, Digitaria sanguinalis; details: Use Example 18
Procedure: as §1, §13, §3
as §4, with “85. […]” for “85.”
as §6, §11, §12, §10

Structure (SMILES): CN1C(=O)C(C)(Cc2ccccc2)N(C)C(=O)C1=Cc1ccccc1C#N (stereo not drawn) [Example 20, 2-[5-Benzyl-1,4,5-trimethyl-3,6-dioxopiperazin-2-ylidenemethyl]benzo-nitrile]
- Herbicidal action in % after 20 days against BRAPL ([1]; Use Example 5): 85%
- Herbicidal action in % after 21 days against BRAPL ([1]; Use Example 9): 95%
- Herbicidal action in % after 20 days against BRAPL ([1]; Use Example 12): 55%
- Herbicidal action in % after 20 days against BRAPL ([1]; Use Example 16): 85%
- Herbicidal action in % after 20 days against DIGSA ([2]; 125 g/ha a.s., Use Example 5): 90%
- Herbicidal action in % after 21 days against DIGSA ([2]; 125 g/ha a.s.): 90%
- Herbicidal action in % after 20 days against DIGSA ([2]; 125 g/ha a.s., Use Example 14): 90%
- Herbicidal action in % after 20 days against DIGSA ([2]; 250 g/ha a.s., Use Example 5): 100%
- Herbicidal action in % after 21 days against DIGSA ([2]; 250 g/ha a.s.): 100%
- Herbicidal action in % after 20 days against AVEFA ([3]; 250 g/ha a.s.): 20%
- Herbicidal action in % after 20 days against AVEFA ([3]; 500 g/ha a.s.): 40%
- Herbicidal action in % after 20 days against POAAN ([4]; 125 g/ha a.s., Use Example 7): 60%
- Herbicidal action in % after 20 days against POAAN ([4]; 125 g/ha a.s., Use Example 15): 60%
- Herbicidal action in % after 20 days against POAAN ([4]; 250 g/ha a.s., Use Example 6): 85%
- Herbicidal action in % after 20 days against POAAN ([4]; 250 g/ha a.s., Use Example 7): 85%
- Herbicidal action in % after 20 days against POAAN ([4]; 250 g/ha a.s., Use Example 15): 85%
- Herbicidal action in % after 20 days against POAAN ([4]; 500 g/ha a.s., Use Example 6): 95%
- Herbicidal action in % after 21 days against SETLU ([5]; 125 g/ha a.s.): 90%
- Herbicidal action in % after 20 days against SETLU ([5]; 125 g/ha a.s., Use Example 14): 90%
- Herbicidal action in % after 21 days against SETLU ([5]; 250 g/ha a.s.): 100%
- Herbicidal action in % after 20 days against SETLU ([5]; 250 g/ha a.s., Use Example 16): 98%
- Herbicidal action in % after 21 days against SETVI [6]: 80%
- Herbicidal action in % after 21 days against LAMPU [7]: 75%
- Herbicidal action in % after 20 days against SETFA ([8]; 125 g/ha a.s., Use Example 12): 45%
- Herbicidal action in % after 20 days against SETFA ([8]; 125 g/ha a.s., Use Example 14): 95%
- Herbicidal action in % after 20 days against SETFA ([8]; 250 g/ha a.s., Use Example 12): 80%
- Herbicidal action in % after 20 days against ALOMY ([9]; 125 g/ha a.s.): 40%
- Herbicidal action in % after 20 days against ALOMY ([9]; 250 g/ha a.s.): 70%
- Herbicidal action in % after 20 days against LOLMU ([10]; 125 g/ha a.s.): 15%
- Herbicidal action in % after 20 days against LOLMU ([10]; 250 g/ha a.s.): 35%
- Herbicidal action in % after 20 days against SETVI ([11]; 62.5 g/ha a.s., Use Example 18): 60%
- Herbicidal action in % after 20 days against SETVI ([11]; 125 g/ha a.s., Use Example 17): 70%
- Herbicidal action in % after 20 days against SETVI ([11]; 125 g/ha a.s., Use Example 18): 70%
- Herbicidal action in % after 20 days against SETVI ([11]; 250 g/ha a.s., Use Example 17): 80%
- Herbicidal action in % after 20 days against DIGSA ([12]; 62.5 g/ha a.s.): 45%
- Herbicidal action in % after 20 days against DIGSA ([12]; 125 g/ha a.s.): 70%
